How the values were obtained:
PDGFRβ [1] = target: T1, PDGFRβ (Homo sapiens (Human), UniProt P09619); assay: PDGFRβ Kinase Assay (biochemical, ELISA); settings: purified cytoplasmic domain PDGFR-b protein, 36 μM ATP
Method: Biochemical PDGFRβ kinase assays were performed in 96 well microtiter plates that were coated overnight with 75 μg of poly-Glu-Tyr (4:1) in 10 mM Phosphate Buffered Saline (PBS), pH 7.4. The coated plates were washed with 2 mls per well PBS+0.05% Tween-20 (PBS-T), blocked by incubation with PBS containing 1% BSA, then washed with 2 mls per well PBS-T prior to starting the reaction. Reactions were carried out in 100 μL reaction volumes containing 36 μM ATP in kinase buffer (50 mM Hepes buffer pH 7.4, 20 mM MgCl2, 0.1 mM MnCl2 and 0.2 mM Na3VO4). Test compounds were reconstituted in 100% DMSO and added to the reaction to give a final DMSO concentration of 5%. Reactions were initiated by the addition 20 ul per well of kinase buffer containing 200-300 ng purified cytoplasmic domain PDGFR-b protein (Millipore). Following a 60 minute incubation at 30° C., the reactions were washed 2 mls per well PBS-T. 100 μl of a monoclonal anti-phosphotyrosine antibody-peroxidase conjugate diluted 1:10,000 in PBS-T was added to the wells for 30 minutes. Following a 2 mis per well wash with PBS-Tween-20, 100 μl of 0-Phenylenediamine Dihydrochloride in phosphate-citrate buffer, containing urea hydrogen peroxide, was added to the wells for 7-10 minutes as a colorimetric substrate for the peroxidase. The reaction was terminated by the addition of 100 μl of 2.5N H2SO4 to each well and read using a microplate ELISA reader set at 492 nm. IC50 values for compound inhibition were calculated directly from graphs of optical density (arbitrary units) versus compound concentration following subtraction of blank values.
Target sequence in this assay (P09619 554-1106): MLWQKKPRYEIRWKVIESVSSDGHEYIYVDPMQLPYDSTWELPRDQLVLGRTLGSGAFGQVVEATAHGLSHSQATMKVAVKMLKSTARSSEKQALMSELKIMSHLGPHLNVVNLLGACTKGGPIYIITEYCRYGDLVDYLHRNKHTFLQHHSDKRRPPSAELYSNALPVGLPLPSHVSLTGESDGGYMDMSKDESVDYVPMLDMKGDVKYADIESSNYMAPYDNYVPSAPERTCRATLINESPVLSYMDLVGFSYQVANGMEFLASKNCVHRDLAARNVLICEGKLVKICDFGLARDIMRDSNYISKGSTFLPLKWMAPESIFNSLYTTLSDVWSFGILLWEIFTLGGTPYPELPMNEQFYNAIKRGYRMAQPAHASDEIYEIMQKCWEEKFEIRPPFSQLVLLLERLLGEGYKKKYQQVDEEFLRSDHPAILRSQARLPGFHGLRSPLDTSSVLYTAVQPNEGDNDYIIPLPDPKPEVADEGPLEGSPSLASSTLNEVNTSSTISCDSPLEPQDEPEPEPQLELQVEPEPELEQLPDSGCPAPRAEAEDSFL

VEGFR2 = VEGFR2 (Homo sapiens (Human), UniProt P35968); assay: VEGFR2 Cellular Assay (FLIPR, VEGF induced intracellular calcium in HUVEC); format: cell-based; settings: VEGF165 stimulation (10 ng/mL)
Method: VEGFR2 Cellular Assay Automated FLIPR (Fluorometric Imaging Plate Reader) technology was used to screen for inhibitors of VEGF induced increases in intracellular calcium levels in fluorescent dye loaded endothelial cells. HUVEC (human umbilical vein endothelial cells) (Clonetics) were seeded in 384-well fibronectin coated black-walled plates overnight @ 37° C./5% CO2. Cells were loaded with calcium indicator Fluo-4 for 45 minutes at 37° C. Cells were washed 2 times (Elx405, Biotek Instruments) to remove extracellular dye. For screening, cells were pre-incubated with test agents for 30 minutes, at a single concentration (10 uM) or at concentrations ranging from 0.0001 to 10.0 uM followed by VEGF165 stimulation (10 ng/mL). Changes in fluorescence at 516 nm were measured simultaneously in all 384 wells using a cooled CCD camera. Data were generated by determining max-min fluorescence levels for unstimulated, stimulated, and drug treated samples. IC50 values for test compounds were calculated from inhibition of VEGF stimulated responses in the absence of inhibitor.

VEGFR2 (KDR) = VEGFR2 (KDR) (Homo sapiens (Human), UniProt P35968); assay: VEGFR2 Kinase Assay (biochemical KDR kinase assay, ELISA); settings: purified cytoplasmic domain KDR protein, 2.7 μM ATP
Method: Biochemical KDR kinase assays were performed in 96 well microtiter plates that were coated overnight with 75 μg/well of poly-Glu-Tyr (4:1) in 10 mM Phosphate Buffered Saline (PBS), pH 7.4. The coated plates were washed with 2 mls per well PBS+0.05% Tween-20 (PBS-T), blocked by incubation with PBS containing 1% BSA, then washed with 2 mls per well PBS-T prior to starting the reaction. Reactions were carried out in 100 μL reaction volumes containing 2.7 μM ATP in kinase buffer (50 mM Hepes buffer pH 7.4, 20 mM MgCl2, 0.1 mM MnCl2 and 0.2 mM Na3VO4). Test compounds were reconstituted in 100% DMSO and added to the reaction to give a final DMSO concentration of 5%. Reactions were initiated by the addition 20 ul per well of kinase buffer containing 200-300 ng purified cytoplasmic domain KDR protein (BPS Bioscience, San Diego, Calif.). Following a 15 minute incubation at 30° C., the reactions were washed 2 mls per well PBS-T. 100 μl of a monoclonal anti-phosphotyrosine antibody-peroxidase conjugate diluted 1:10,000 in PBS-T was added to the wells for 30 minutes. Following a 2 mis per well wash with PBS-Tween-20, 100 μl of O-Phenylenediamine Dihydrochloride in phosphate-citrate buffer, containing urea hydrogen peroxide, was added to the wells for 7-10 minutes as a colorimetric substrate for the peroxidase. The reaction was terminated by the addition of 100 μl of 2.5N H2SO4 to each well and read using a microplate ELISA reader set at 492 nm. IC50 values for compound inhibition were calculated directly from graphs of optical density (arbitrary units) versus compound concentration following subtraction of blank values.

PDGFRβ [2] = target: T1, PDGFRβ; assay: PDGFRβ Cellular Assay (FLIPR, PDGF-induced intracellular calcium in NHDF-Ad); format: cell-based; settings: PDGF-BB stimulation (30 ng/mL)
Method: NHDF-Ad (Normal Human Dermal Fibroblasts, Adult; Lonza) were seeded in 384-well fibronectin coated black-walled plates overnight @ 37° C./5% CO2. Cells were loaded with calcium indicator Fluo-4 for 45 minutes at 37° C. Cells were washed 2 times (Elx405, Biotek Instruments) to remove extracellular dye. For screening, cells were pre-incubated with test agents for 30 minutes, at a single concentration (10 uM) or at concentrations ranging from 0.0001 to 10.0 uM followed by PDGF-BB stimulation (30 ng/mL). Changes in fluorescence at 516 nm were measured simultaneously in all 384 wells using a cooled CCD camera. Data were generated by determining max-min fluorescence levels for unstimulated, stimulated, and drug treated samples. IC50 values for test compounds were calculated from % inhibition of PDGF-BB stimulated responses in the absence of inhibitor.
Target sequence in this assay (P09619 33-1106): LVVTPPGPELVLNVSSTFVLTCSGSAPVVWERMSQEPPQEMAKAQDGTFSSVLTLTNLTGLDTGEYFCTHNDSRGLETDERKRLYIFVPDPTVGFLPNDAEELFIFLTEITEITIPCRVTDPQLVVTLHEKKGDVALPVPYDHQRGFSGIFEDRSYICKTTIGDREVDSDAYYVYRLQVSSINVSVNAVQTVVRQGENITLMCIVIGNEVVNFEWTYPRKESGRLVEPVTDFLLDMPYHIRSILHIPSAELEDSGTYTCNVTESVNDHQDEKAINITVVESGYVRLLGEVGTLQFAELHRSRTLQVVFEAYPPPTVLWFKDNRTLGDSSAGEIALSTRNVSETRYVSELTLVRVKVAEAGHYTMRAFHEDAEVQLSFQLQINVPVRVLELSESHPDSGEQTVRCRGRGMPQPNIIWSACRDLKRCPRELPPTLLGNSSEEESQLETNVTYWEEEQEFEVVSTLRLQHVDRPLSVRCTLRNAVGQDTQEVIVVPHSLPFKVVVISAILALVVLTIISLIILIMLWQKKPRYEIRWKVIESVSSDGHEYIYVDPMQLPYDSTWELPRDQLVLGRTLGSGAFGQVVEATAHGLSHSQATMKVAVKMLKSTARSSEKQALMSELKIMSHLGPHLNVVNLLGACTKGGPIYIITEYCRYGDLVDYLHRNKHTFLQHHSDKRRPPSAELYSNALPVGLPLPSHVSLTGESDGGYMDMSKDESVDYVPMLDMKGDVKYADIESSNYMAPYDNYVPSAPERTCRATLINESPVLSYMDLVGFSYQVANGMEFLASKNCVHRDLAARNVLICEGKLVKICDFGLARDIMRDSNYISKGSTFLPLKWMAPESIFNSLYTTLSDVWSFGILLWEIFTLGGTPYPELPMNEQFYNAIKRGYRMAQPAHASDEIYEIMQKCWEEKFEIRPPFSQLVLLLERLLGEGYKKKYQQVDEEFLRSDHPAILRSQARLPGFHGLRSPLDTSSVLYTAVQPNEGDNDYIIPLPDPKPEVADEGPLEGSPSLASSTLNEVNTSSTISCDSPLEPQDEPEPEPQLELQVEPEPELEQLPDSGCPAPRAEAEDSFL

Sequence of VEGFR2 (KDR) (P35968 786-1356): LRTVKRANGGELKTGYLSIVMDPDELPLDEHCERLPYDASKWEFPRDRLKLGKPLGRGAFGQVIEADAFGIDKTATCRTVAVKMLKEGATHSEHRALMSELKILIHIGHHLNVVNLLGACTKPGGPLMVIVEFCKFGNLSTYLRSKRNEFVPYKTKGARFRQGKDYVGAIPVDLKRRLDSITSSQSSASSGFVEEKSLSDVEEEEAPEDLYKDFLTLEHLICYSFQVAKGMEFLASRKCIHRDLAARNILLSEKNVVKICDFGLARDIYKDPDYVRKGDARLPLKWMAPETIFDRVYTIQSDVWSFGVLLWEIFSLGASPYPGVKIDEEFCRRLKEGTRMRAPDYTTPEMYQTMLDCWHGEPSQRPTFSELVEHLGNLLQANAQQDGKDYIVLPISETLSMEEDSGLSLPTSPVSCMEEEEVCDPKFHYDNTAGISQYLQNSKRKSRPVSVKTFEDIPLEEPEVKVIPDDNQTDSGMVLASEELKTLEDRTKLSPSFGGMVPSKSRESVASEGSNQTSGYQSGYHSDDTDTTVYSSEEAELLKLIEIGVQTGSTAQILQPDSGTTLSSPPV
Sequence of VEGFR2 (P35968 20-1356): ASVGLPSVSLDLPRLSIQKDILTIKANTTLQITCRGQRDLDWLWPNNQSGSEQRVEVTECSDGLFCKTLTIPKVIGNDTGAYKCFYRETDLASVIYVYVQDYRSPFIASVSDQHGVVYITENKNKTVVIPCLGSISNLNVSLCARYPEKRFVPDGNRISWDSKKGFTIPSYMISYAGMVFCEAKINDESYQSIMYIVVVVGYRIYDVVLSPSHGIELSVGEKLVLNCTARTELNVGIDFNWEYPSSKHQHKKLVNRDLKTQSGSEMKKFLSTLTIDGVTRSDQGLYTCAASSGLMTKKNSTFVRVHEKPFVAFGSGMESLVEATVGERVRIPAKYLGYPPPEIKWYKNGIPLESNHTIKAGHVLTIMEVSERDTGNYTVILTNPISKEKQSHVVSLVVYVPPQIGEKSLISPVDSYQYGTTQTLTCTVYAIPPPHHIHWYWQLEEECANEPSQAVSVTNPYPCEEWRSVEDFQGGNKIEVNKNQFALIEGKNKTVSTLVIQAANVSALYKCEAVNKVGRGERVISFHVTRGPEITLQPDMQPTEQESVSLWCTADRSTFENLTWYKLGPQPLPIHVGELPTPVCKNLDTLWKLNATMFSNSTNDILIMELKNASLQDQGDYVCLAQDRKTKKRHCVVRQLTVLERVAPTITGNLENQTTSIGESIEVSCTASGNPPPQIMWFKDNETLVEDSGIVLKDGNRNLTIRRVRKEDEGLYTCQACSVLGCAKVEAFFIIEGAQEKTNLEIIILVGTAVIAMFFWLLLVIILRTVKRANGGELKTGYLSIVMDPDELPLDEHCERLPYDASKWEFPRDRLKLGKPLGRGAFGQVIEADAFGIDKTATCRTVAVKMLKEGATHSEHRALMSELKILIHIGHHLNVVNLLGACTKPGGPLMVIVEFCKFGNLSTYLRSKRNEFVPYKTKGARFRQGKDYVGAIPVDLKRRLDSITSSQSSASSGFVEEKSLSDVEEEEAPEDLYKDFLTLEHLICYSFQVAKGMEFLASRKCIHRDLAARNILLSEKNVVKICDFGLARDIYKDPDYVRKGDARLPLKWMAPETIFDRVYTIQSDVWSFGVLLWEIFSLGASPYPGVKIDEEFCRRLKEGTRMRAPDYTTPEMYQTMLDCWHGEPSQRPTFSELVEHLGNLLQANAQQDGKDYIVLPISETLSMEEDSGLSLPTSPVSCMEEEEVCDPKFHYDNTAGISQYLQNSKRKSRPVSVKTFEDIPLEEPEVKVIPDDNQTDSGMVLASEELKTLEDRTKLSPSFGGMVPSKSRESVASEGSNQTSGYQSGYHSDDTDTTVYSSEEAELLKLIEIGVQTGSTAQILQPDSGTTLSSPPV

| Structure (SMILES) | IC50 (PDGFRβ [1]) | IC50 (VEGFR2) | IC50 (VEGFR2 (KDR)) | IC50 (PDGFRβ [2]) |
| --- | --- | --- | --- | --- |
| CC(C)c1cccc(NC(=O)c2cccc(N3CCc4c(cnc5ccnn45)C3)c2)c1 [Example 3, 3-(8,9-dihydropyrazolo[1,5-a]pyrido[3,4-e]pyrimidin-7(6H)-yl)-N-(3-isopropylphenyl)benzamide] | 20 nM | 26 nM | 8 nM | – |
| O=C(Nc1cccc(C(F)(F)F)c1)c1cccc(N2CCc3c(cnc4ccnn34)C2)c1 [Example 4, 3-(8,9-dihydropyrazolo[1,5-a]pyrido[3,4-e]pyrimidin-7(6H)-yl)-N-[3-(trifluoromethyl)phenyl] benzamide] | 27 nM | 70 nM | 6 nM | 192 nM |
| CC(C)c1cccc(NC(=O)c2cccc(N3Cc4cnc5ccnn5c4C3)c2)c1 [Example 7, 3-(6,8-dihydro-7H-pyrazolo[1,5-a]pyrrolo[3,4-e]pyrimidin-7-yl)-N-(3-isopropylphenyl)benzamide] | – | – | > 10000 nM | – |
| CC(C)(C)OC(=O)Nc1cccc(N2CCc3c(cnc4ccnn34)C2)c1 [Example 8, tert-Butyl (3-(8,9-dihydropyrazolo[1,5-a]pyrido[3,4-e]pyrimidin-7(6H)-yl)phenyl)carbamate] | – | – | > 10000 nM | – |
| O=C(Nc1cccc(N2CCc3c(cnc4ccnn34)C2)c1)c1ccccc1 [Example 10, N-[3-(8,9-dihydropyrazolo[1,5-a]pyrido[3,4-e]pyrimidin-7(6H)-yl)phenyl]benzamide] | 202 nM | – | 101 nM | – |
| O=C(Nc1cccc(N2CCc3c(cnc4ccnn34)C2)c1)c1cccc(C(F)(F)F)c1 [Example 11, N-[3-(8,9-dihydropyrazolo[1,5-a]pyrido[3,4-e]pyrimidin-7(6H)-yl)phenyl]-3-(trifluoromethyl)benzamid] | 21 nM | – | 6 nM | – |
| Cc1cccc(NC(=O)Nc2cccc(N3CCc4c(cnc5ccnn45)C3)c2)c1 [Example 12, 1-[3-(8,9-dihydropyrazolo[1,5-a]pyrido[3,4-e]pyrimidin-7(6H)-yl)phenyl]-3-(3-methylphenyl)urea] | 32 nM | – | 27 nM | – |
